In BindingDB's records for patent US10106535 (Chdi Foundation, 2018):

Target: Histone deacetylase 4 (Homo sapiens, UniProt P56524)
Assay: Biochemical HDAC-4 Assay
Experimental: 5 μl of each solution of 1:20 diluted compound from above is transferred to a clear bottomed, black, 384-well assay plate using the Bravo or the Janus (384-well MDT head from Perkin Elmer). Using a 16-channel Matrix multi-channel pipette, 35 μl of the working solution of HDAC4 catalytic domain enzyme (0.2 μg/ml in assay buffer) is transferred to the assay plate. The assay is then started by adding 10 μl of 5× (50 μM) substrate to the assay plates using either the Bravo, Janus or 16-channel Matrix multi-channel pipette. The assay plate is then shaken for two minutes on an orbital shaker at 900 rpm (rotations per minute). Next the plate is incubated for 15 minutes at 37° C. The reaction is stopped by adding 25 μl of 3× (30 μM) developer/stop solution to the assay plates using either the Bravo, Janus or a 16-channel Matrix multi-channel pipette. Assay plates are then shaken for 5 minutes on an orbital shaker at 1200 rpm. Next, the assay plates are incubated at 37° C. for 1 hour in a tissue culture incubator. Finally, the fluorescence is measured (Excitation: 355 nm, Emission: 460 nm) using PerkinElmer EnVision in top read mode.

Sequence of Histone deacetylase 4 (P56524 whole entry): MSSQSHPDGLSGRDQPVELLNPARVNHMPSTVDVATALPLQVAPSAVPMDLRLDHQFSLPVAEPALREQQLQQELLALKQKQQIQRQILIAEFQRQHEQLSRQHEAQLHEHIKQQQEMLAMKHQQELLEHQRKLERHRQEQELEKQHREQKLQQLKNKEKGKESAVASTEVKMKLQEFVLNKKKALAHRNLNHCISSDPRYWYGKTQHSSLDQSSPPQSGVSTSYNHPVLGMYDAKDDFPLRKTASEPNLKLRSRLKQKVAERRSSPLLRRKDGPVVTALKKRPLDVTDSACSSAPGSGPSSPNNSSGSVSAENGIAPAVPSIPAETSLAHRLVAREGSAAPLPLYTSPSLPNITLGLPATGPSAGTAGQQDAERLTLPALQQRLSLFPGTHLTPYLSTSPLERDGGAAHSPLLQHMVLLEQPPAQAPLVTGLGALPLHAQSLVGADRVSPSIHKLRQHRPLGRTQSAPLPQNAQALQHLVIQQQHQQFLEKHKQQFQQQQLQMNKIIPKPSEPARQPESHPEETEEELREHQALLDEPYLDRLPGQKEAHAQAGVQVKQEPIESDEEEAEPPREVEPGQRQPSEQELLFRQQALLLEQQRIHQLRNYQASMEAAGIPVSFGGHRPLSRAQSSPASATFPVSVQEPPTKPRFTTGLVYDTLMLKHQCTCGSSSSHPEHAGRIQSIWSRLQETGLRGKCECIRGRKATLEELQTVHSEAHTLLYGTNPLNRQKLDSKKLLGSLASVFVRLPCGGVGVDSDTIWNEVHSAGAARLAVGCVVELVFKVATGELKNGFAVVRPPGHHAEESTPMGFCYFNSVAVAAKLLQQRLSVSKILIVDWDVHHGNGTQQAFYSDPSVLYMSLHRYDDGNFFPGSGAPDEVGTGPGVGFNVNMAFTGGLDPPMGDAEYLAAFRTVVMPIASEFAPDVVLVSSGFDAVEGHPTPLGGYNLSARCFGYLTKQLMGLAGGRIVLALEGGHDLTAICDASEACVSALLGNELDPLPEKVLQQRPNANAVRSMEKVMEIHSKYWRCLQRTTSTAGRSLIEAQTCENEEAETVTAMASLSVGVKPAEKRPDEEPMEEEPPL

IC50: 12.3 µM
Compound: O=C(NO)C1C=CCC1c1ccccc1 (stereo unspecified) [US10106535, Example 30]
